According to paper PMC5557808 (Nature Communications, 2017):
One block for each compound: values may come before it.

How the values were obtained:
human tongue = conditions: cited from earlier work
Procedure: Sensor design was driven by physiological insights on taste. Structurally diverse molecules are bitter tasting, including polyphenols, flavonoids, or methylxanthines (caffeine)[3]. The main function of sensing bitter taste is linked to the detection of poisonous substances. This would readily explain why bitter taste is so sensitively recognized with some molecules being recognized in the nanomolar range[4]. The human tongue senses bitterness of denatonium down to concentrations of 10 nM with consumer products containing as little as 30–100 ppm[5]. […] To date, it is the mo s t bitter substance known and th e b itter taste can be detected at concentrations of 10 ppb 2. Because of its lower toxicity as co mpar ed to the b itter molecules brucine 3 or str ychnin e it is wid el y used as an additive for denaturing alcohol, deter gents, dis ...

MMP-8 [1] = biological target: T1, MMP-8 (Homo sapiens, UniProt P22894); assay: MMP-8 cleavage of soluble PCL conjugates (HPLC decrease of main peak); type: biochemical; conditions: 900 ng/mL MMP-8, after 360 min; 0.5 mg/mL substrate, MMP-8 buffer pH 6.8-7.0, 37 °C under agitation; HPLC; mean, n = 8
T1 construct: purchased EMD Millipore Corporation (Billerica, MA)
Procedure: Pro-MMPs (e.g., MMP-8, MMP-1, or MMP-9; used at 0.1 mg/mL and >100.0 mU/mg based on the manufacturer’s information) were activated with p-aminophenylmercuric acetate (APMA) (8). For that, a 10 mM stock solution of APMA was freshly prepared in 0.1 M NaOH and a 10:1 (v/v) ratio of the respective proenzyme and the APMA solution (MMP:APMA) was incubated for 3 h at 37 °C. The activity was confirmed using the MMP-8 detection kit (QuickZyme Biosciences, Leiden, the Netherlands). A stock solution (90 µg/mL) of the activated MMP was prepared (used for cleavage studies on the PCL or the fully assembled microparticle-PCL-tastant setup (sensor), in MMP-8 buffer (200 mM NaCl, 50 mM Tris-HCl, 5 mM CaCl2, 1 µM ZnCl2, 0.05% Brij 35 at pH 6.8–7.0). All MMP experiments are described in detail in the Supplementary Methods. […]
in water ( v/v)) and eluent B (0.1 % TFA in 2:3 water-acetonitrile (v/v)) and a gradient from 33 to 80% elu ent B within 30 minutes. UV absorption was r ead at λ = 280 nm or 220 nm. After freezing the samples at -80 °C, fr eeze- drying was performed on a Christ Alpha 1 -4 de vi ce (Martin Christ Gefriertrocknungs anlagen, Osterode am Harz, G e r ma n y) at a desublimers ’ te mperature of - 60 ° C, pressure of 1.030 mbar and processing temperature of 19 °C.
Pro-MMPs (e. g. MMP -8, MMP -1 or MMP-9; adapted to 0.1 mg/mL and > 100.0 mU/mg based on manufacturer information and when appropriate) were activated with APMA 8. For that, a 10 mM stock solution of APMA in 0.1 M NaOH was freshly prepared and a 10:1 (v/v) ratio of the r especti ve proenzyme and APMA solution (MMP:APMA) was incubated for 3 h at 37 °C. The activity was conf ir med using the MMP-8 detection kit (Q uic kZ ym e® Biosciences, Leiden, Netherlands). A stock solution (90 µg/mL) of the activated MMP was prepared (used for cleavage studies on the pr ot eas e-cleavable linker (PCL; e.g. Figure 2) or the fully assemb led microparticle -PCL- t ast ant setup (sensor; e.g. Figure 3) , in MMP -8 buffer (200 mM NaCl, 50 mM Tris-H Cl, 5 mM C aC l2, 1 µM ZnCl2, 0.05 % Brij35 at pH 6.8- 7.0). A ll MMP -8 exp eriments wer e performed as follo ws. 25 µg of the sensor ( see chap ter : Peptide-coupling to beads (Sensor)) in 100 µL MMP-buffer or 1 mg of FP LC -purified and lyophilized PCL as described dissolved 2 mL M MP -buffer resulting in a final concentration of 0.5 mg/ mL substrate was used. […]
Figure 2A , 3, 4B ). […]
(sensor) in co mpar ison to negative controls (the negative controls for the PCL an d sensor exper i men ts were b y incubation without MMP under otherwise identical conditions). The relative d ecreas e of the PCL’s ma in peak was char act er ized by HPLC (PCL) or of the sensor’s fluorescence b y FACS (sensor) in comparison to control. […]

[2] = system: MMP-1, MMP-8, MMP-9, MMP-13; assay: MMP selectivity of the soluble PCL carboxyfluorescein conjugate; type: biochemical, human; conditions: MMPs at 900 ng/mL, 60 min, 37 °C; HPLC
Procedure: Pro-MMPs (e.g., MMP-8, MMP-1, or MMP-9; used at 0.1 mg/mL and >100.0 mU/mg based on the manufacturer’s information) were activated with p-aminophenylmercuric acetate (APMA) (8). For that, a 10 mM stock solution of APMA was freshly prepared in 0.1 M NaOH and a 10:1 (v/v) ratio of the respective proenzyme and the APMA solution (MMP:APMA) was incubated for 3 h at 37 °C. The activity was confirmed using the MMP-8 detection kit (QuickZyme Biosciences, Leiden, the Netherlands). […]
Enzymatic reactions were stopped using 4 µL 250 mM ED TA in case of the sensor or heating in cas e of uncoupled PCL (95 °C for 15 minutes; the beads of the sensor would melt at h eatin g due to a different method used). Cleavage was analyzed by […] an al ysis (PCL) or by flow c yto metr y (sensor) in co mpar ison to negative controls (the negative controls for the PCL an d sensor exper i men ts were b y incubation without MMP under otherwise identical conditions). The relative d ecreas e of the PCL’s ma in peak was char act er ized by HPLC (PCL) or of the sensor’s fluorescence b y FACS (sensor) in comparison to control. […]

MMP-8 [3] = assay: MMP-8 buffer (200 mM NaCl, 50 mM Tris-HCl, 5 mM CaCl2, 1 µM ZnCl2, 0.05% Brij 35 at pH 6.8–7.0); conditions: human, 37 °C, up to 6 hours
MMP-8 [4] = assay: MMP-8 in MMP-8 buffer; conditions: human, 37 °C, up to 22 h
[5] = system: Leucine aminopeptidase (AP); assay: AP-incubated peptide (without MMP-8); conditions: porcine kidney
[6] = system: Leucine aminopeptidase from porcine kidney; assay: AP buffer (50 mM Tris-HCl, 1 mM CaCl2 and 150 mM NaCl at pH 7.0); conditions: 37 °C, up to 20 h
[7] = system: Leucine aminopeptidase (AP); assay: AP buffer (50 mM Tris-HCl, 1 mM CaCl2, and 150 mM NaCl at pH 7.0); conditions: porcine kidney, 37 °C, up to 20 h

T1 sequence (P22894 101-467): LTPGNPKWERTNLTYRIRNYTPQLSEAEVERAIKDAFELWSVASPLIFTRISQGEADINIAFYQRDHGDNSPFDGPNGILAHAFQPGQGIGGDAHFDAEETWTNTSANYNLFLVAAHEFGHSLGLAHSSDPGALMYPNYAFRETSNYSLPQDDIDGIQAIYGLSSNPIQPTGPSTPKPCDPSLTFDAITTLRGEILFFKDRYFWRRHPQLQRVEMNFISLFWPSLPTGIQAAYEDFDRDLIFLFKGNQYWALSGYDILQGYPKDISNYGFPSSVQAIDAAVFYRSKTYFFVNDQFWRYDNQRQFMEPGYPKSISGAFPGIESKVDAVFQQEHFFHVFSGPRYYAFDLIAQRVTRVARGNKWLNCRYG

Compound: CC[N+](CC)(CC(=O)Nc1c(C)cccc1C)Cc1ccccc1.[Cl-] [Denatonium chloride]
concentration at which the bitter taste can be detected (human tongue; ref 2 (Supplementary References)): 10 ppb

Compound: CC[N+](CC)(CC(=O)Nc1c(C)cccc1C)Cc1ccccc1 [Denatonium, Denatonium benzoate]
concentration down to which the human tongue senses bitterness (human tongue): 10 nM

Compound: De-GPQGIAGQ-A( N3)-Q
cleaved bond (MMP-8 [3]): G-I
cleaved bond (MMP-8 [4]): G-I
not cleaved [5]: one HPLC-peak at 7.178 min with a mass of 1331.9 Da, as negative control

Compound: De-GPQGIAGQ-A(N3)-Q
not cleaved [6]: one HPLC peak, mass 1331.9 Da after AP incubation

Further lines, with some results ahead:

Cleavage (%) of the PCL over incubation time, plateau (MMP-8 [1]): > 50%
Compound: Cf-GP QGIA GQ-A( N3)-Q [ID #1b, PCL carboxyfluorescein conjugate]
MMP sensitivity rank order of the soluble PCL conjugate [2]: MMP-8 = MMP-9 > MMP-13 > MMP-1

fragment found [7]: denatonium coupled to lysine
Compound: I AGQ-K-De
